# Source: patent US4053604A (priority 1975, dated 1977)
# Where “and” joins values, the source holds several entries; their conditions need not be identical. Equal entries are not always repeated.
# Tests used:
# [1] = tail-flick test, analgesic activity of the agent alone; type: in vivo, albino mice; settings: for ED50: Mus musculus, ip, 0.25 h, i.p., dose which increased analgesia by 50% when tested 15 minutes after drug administration
# From the text: (§1) In the following experiments, phenoperidine and Compound I are used in the form of their hydrochloride salt and droperidol in the form of its free base in the presence of lactic acid for adjustment to pH to 3.4. Results are expressed on the basis of the form of the drug employed (i.e., free base or hydrochloride salt).
# (§2) Results of such tests using albino mice are illustrated by tables 1,2 and 3 in which the neuroleptic agent, droperidol, is included for comparative purposes.
# *The dose which increased analgesia by 50% when tested 15 minutes after […]
# [2] = tail-flick test, potentiation of the analgesic activity of phenoperidine; type: in vivo, albino mice
# From the text: as §1, §2
# Potentiation of the Analgesic Activity (ED50) of Phenoperidine,
# i.e. 0.5 mg/kg, by varying Doses of Neuroleptic Agents.
# *PD50 refers to the dose of the neuroleptic which increased the
# analgesic activity (ED50) of phenoperidine by 50%.
# Modified Analgesic Activity of Phenoperidine in
# the Presence of the Neuroleptic PD50. -
# *ED50 refers to the analgesic activity of phenoperidine after
# pretreatment with a fixed dose (PD50) of the neuroleptic agents.
# [3] = respiratory minute volume and mean arterial blood pressure in rats; type: in vivo
# Protocol: These effects are less than those encountered with neuroleptics presently available for NLA as evidenced by laboratory experiments in rats in which these cardiovascular parameters are measured before and after the administration of Compound 1 and the neuroleptic agent droperidol, see Table 8.
# The Effect of Compound 1 and Droperidol on Respiratory Minute Volume
# and Mean Arterial Blood Pressure
# [4] = induction time of rats exposed to halothane anesthesia (loss of righting reflex); type: in vivo, male albino rats (Sprague-Dawley)
# Protocol: (§3) The effects of Compound I on halothane-induced anesthesia were assessed using 20 rats for each dose or time interval determination. The experiments were performed on male albino rats (Sprague-Dawley) weighing from 180-220 g. A schematic representation of the apparatus used is illustrated in FIG. 1. The apparatus consists of a rectangular box made of transparent plastic (115 cm long × 28 cm high × 28 cm wide) which is divided into 4 equal chambers by perforated walls. The box rotates around a hollow axis through which gases can be delivered at several proportions from cylinders, through their respective flowmeters. An in-line halothane vaporizer is placed just before the gases reach the chambers. There is an air-tight door to every chamber through which two animals, one treated and one control, are introduced. The gases are delivered at one end of the box and suction is applied to the other end to take up the gases after flowing through the chambers. An in-line water manometer monitors the resulting pressure. This pressure is kept at 0-5 mm H2 O to make certain the gases in the anesthetic chambers remain at atmospheric pressure. The mixture of gases is delivered at a rate of 15 l/min. The inhalation anesthetic gases are delivered for ten minutes prior to the introduction of the animals into the chambers to assure an even distribution in the four chambers. The chambers rotate at four rev/min forcing the animals to tumble and allowing the experimenter to accurately time the loss and recovery of the righting reflex. Induction times are recorded as the time interval elapsed between the beginning of exposure of the animals to the gases and the moment in which they lose their righting reflex.
# (§4) Groups of control animals (four at a time) were subjected to halothane concentrations ranging from 0.5 to 2.5% in a mixture of 95% O2 -5% CO2, and the induction times thus obtained were used to calculate concentration-reponse curves. Since a certain time elapsed between putting the first and the last rat into their respective chambers, each animal was timed separately with a stopwatch. […] This intermediate concentration of halothane was then used to study the effects of increasing doses of the test compound on the induction times and anesthesia times.
# (§5) The animals were pretreated by administering the test compounds in dosages ranging from 10 to 500 μg/kg, i.v., at 5, 30, 60, 120, 240 and 360 minutes prior to their exposure to halothane. As soon as all animals lost their righting reflex, the O2 -halothane flow was discontinued and replaced by an equal flow of air. The animals were allowed to remain in the rotating chambers until they regained their righting reflex. Anesthesia times were determined as the interval between the time required to lose and the time to regain the righting reflex. Air flushing of the anesthetic chambers was performed after each determination and the entire procedure repeated with another group of animals for the determination of the effect of a new dose or concentration.
# (§6) Drugs used in this study include: droperidol, phenoperidine hydrochloride, halothane and Compound I in the form of its hydrochloride salt. Phenoperidine hydrochloride and Compound I (hydrochloride) were dissolved separately in a warm solution of 0.9% sodium chloride. Droperidol was suspended in saline with the aid of a drop ot Tween 80 (Tween 80 is a registered trademark for a complex mixture of polyoxyethylene ethers of mixed partial oleic esters of sorbitol anhydride). Dosages are expressed in this study as the salt form of the compound where applicable. When the experimental protocol called for the concomitant administration of two drugs, these were mixed in the syringe and administered intravenously. The drugs were injected in a volume of 0.1 ml/100 g body weight.
# (§7) The statistical analysis of the data was performed using Student's […]. […]
# [5] = anesthesia time of rats exposed to halothane anesthesia (recovery of righting reflex); type: in vivo, male albino rats (Sprague-Dawley); settings: phenoperidine hydrochloride 25 μg/kg, i.v.; in words
# Protocol: as §3, §4, §5, §6, §7
# [6] = behavioral changes and side effects in cebus monkeys; type: in vivo; settings: for Behavioral Changes / Side Effects / Duration / Onset / times at which the side effect was observed: Phenoperidine, individual monkey
smiles,measurement,setting,value
"O=C(CCCN1CC=C(n2c(=O)[nH]c3ccccc32)CC1)c1ccc(F)cc1 [droperidol, reference compound]",ED50,[1],> 30 mg/kg
same,analgesic activity when given alone,[1]; in words,no analgesic activity could be demonstrated
same,enhancement of analgesic activity of phenoperidine by concomitant administration,[2]; in words,significantly enhanced
same,"relative potentiating activity, Compound I versus droperidol",[2]; in words,equiactive
same,PD50 of Neuroleptic Agent (dose which increased the analgesic activity (ED50) of phenoperidine by 50%),"[2]; mouse, in vivo, ip",0.55 ± 0.10 mg/kg
same,Change in Mean B.P. as % of Control,[3]; 25 μg/kg,-28.4 ± 4.6 % of Control
same,Change in Minute Volume as % of Control,[3]; 25 μg/kg,+13.9 ± 3.0 % of Control
same,Change in Mean B.P. as % of Control,[3]; 100 μg/kg,-15.4 ± 5.9 % of Control
same,Change in Minute Volume as % of Control,[3]; 100 μg/kg,+15.6 ± 6.2 % of Control
same,Change in Mean B.P. as % of Control,[3]; 250 μg/kg,-26.9 ± 3.2 % of Control
same,Change in Minute Volume as % of Control,[3]; 250 μg/kg,+27.3 ± 8.1 % of Control
"FC(F)(F)C(Cl)Br (centres unmarked) [halothane, reference compound]","induction time, halothane alone (average)","[4]; control experiments, 1% halothane in 95% O2-5% CO2",2.4 min
"CCOC(=O)C1(c2ccccc2)CCN(CCC(O)c2ccccc2)CC1 (centres unmarked) [phenoperidine, 1-(3-hydroxy-3-phenylpropyl)-4-phenylisonipecotic acid ethyl ester, reference compound]",ED50,[1],0.5 ± 0.1 mg/kg
same,effect on induction time of rats anesthetized with halothane,"[4]; phenoperidine hydrochloride 25 μg/kg, i.v., in words",did not modify
same,effect on anesthesia time of rats anesthetized with halothane,[5],did not modify
same,undesirable side effects,"[6]; 50-100 μg/kg, in words",salivation and vomiting were consistently observed
same,Behavioral Changes,[6]; 10 μg/kg i.v.,None
same,Side Effects,[6]; 10 μg/kg i.v.,None
same,Behavioral Changes,[6]; 50 μg/kg i.v.,Sedation and None
same,Duration,[6]; 50 μg/kg i.v.,1 h and > 3 h
same,Onset,[6]; 50 μg/kg i.v.,5 min
same,Side Effects,[6]; 50 μg/kg i.v.,Salivation and Vomit and None
same,times at which the side effect was observed,[6]; 50 μg/kg i.v.,15 min and 10 to 15 min
same,times at which the side effect was observed,"[6]; 100 μg/kg i.v., Vomit",5 to 25 min and 20 to 45 min
same,Behavioral Changes,[6]; 100 μg/kg i.v.,Sedation
same,Duration,[6]; 100 μg/kg i.v.,1 h
same,Onset,[6]; 100 μg/kg i.v.,5 min
same,Side Effects,[6]; 100 μg/kg i.v.,Vomit
same,doses producing the main beneficial effect (sedation) and undesirable side effects,[6]; phenoperidine i.v.,0.05 to 0.1 mg/kg
